Source: US9982152B2, “Active energy ray curable composition, cured product, composition storage container, two-dimensional or three-dimensional image forming apparatus, and two-dimensional or three-dimensional image forming method” (Ricoh Company, Ltd., priority 2016, dated 2018)
Like-named read-outs stand apart in the source and are kept apart here.

Tests used:
[1] = data source SDS, GHS hazard category for skin sensitizers or negative in a skin sensitization test, cited from earlier work
[2] = LLNA (Local Lymph Node Assay), SI (Stimulus Index); assay type: in vivo; conditions: for Skin Sensitization Potential: judged from SI by LLNA; for SI (by LLNA): measured according to method of JP-2012-140593-A
Excerpt: In the present disclosure, compounds having skin sensitization potential refer to those determined to be positive in a skin sensitization test. Hereinafter, such compounds may also be referred to as “skin-sensitizing compounds” or “skin sensitizers”. The skin sensitization test is not limited to a specific test. As an example of the skin sensitization test, LLNA (Local Lymph Node Assay) is known that evaluates the degree of sensitization potential by SI (Stimulus Index). SI of 3 or more is determined to be positive.
Skin sensitization information described in Table 1 was obtained from SDSs available in Japan or other countries. SI (determined by LLNA) values described in Table 1 were measured according to a method described in JP-2012-140593-A.

CCn1c2ccc(C(=O)c3ccccc3C)cc2c2cc(C(C)=NOC(C)=O)ccc21 [(B1-4), 1-[9-Ethyl-6-(2-methylbenzoyl)-9H-carbazole-3-yl]ethanone o-acetyloxime]
Skin Sensitization Potential [1]: 1B | Skin Sensitization Potential ([1]; listed as IRGACURE OXE02): sub-category 1B

CC(C)(O)C(=O)c1ccc(OCCO)cc1 [(B2-4), 1-[4-(2-hydroxyethoxy)phenyl]-2-hydroxy-2-methylpropane-1-one]
Skin Sensitization Potential [1]: Negative | Skin Sensitization Potential ([1]; listed as IRGACURE 2959): negative

CCCCCCC(=NOC(=O)c1ccccc1)C(=O)c1ccc(Sc2ccccc2)cc1 [(B1-3), 1-[4-(Phenylthio)phenyl]octane-1,2-dione 2-(o-benzoyloxime)]
Skin Sensitization Potential [1]: Category 1 | Skin Sensitization Potential ([1]; listed as IRGACURE OXE01): category 1

CSc1ccc(C(=O)C(C)(C)N2CCOCC2)cc1 [(B2-1), 2-Methyl-1-[4-(methylthio)phenyl]-2-morpholinopropane-1-one]
Skin Sensitization Potential [1]: Negative | Skin Sensitization Potential ([1]; listed as IRGACURE 907): negative

Cc1cc(C)c(C(=O)P(=O)(c2ccccc2)c2ccccc2)c(C)c1 [(B1-1), Diphenyl(2,4,6-trimethylbenzoyl)phosphine oxide]
Skin Sensitization Potential [1]: 1B | Skin Sensitization Potential ([1]; listed as IRGACURE TPO): sub-category 1B

Tricyclodecane dimethanol dimethacrylate [(A-4)]
Skin Sensitization Potential [2]: Negative | Skin Sensitization Potential ([2]; listed as tricyclodecane dimethanol dimethacrylate): non-skin-sensitizing | SI (by LLNA) [2]: SI = 1.3

C=CC(=O)NCCO [(A-2), N-(2-Hydroxyethyl)acrylamide]
Skin Sensitization Potential [1]: Negative | Skin Sensitization Potential ([1]; listed as HEAA): negative

Cc1cc(C)c(C(=O)P(=O)(C(=O)c2c(C)cc(C)cc2C)c2ccccc2)c(C)c1 [(B1-2), Phenylbis(2,4,6-trimethylbenzoyl)phosphine oxide]
Skin Sensitization Potential [1]: Category 1 | Skin Sensitization Potential ([1]; listed as IRGACURE 819): category 1

CCC(Cc1ccc(C)cc1)(C(=O)c1ccc(N2CCOCC2)cc1)N(C)C (stereo not drawn) [(B2-2), 2-(Dimethylamino)-2-[(4-methylphenyl)methyl]-1-(4-morpholinophenyl)butane-1-one]
Skin Sensitization Potential [1]: Negative | Skin Sensitization Potential ([1]; listed as IRGACURE 379): negative

C=C(C)C(=O)OCC(C)(C)COC(=O)C(=C)C [(A-5), Neopentyl glycol dimethacrylate]
Skin Sensitization Potential [2]: Negative | Skin Sensitization Potential ([2]; listed as neopentyl glycol dimethacrylate): non-skin-sensitizing | SI (by LLNA) [2]: SI = 2.0

O=C(c1ccccc1)C1(O)CCCCC1 [(B2-3), 1-Hydroxycyclohexyl phenyl ketone]
Skin Sensitization Potential [1]: Negative | Skin Sensitization Potential ([1]; listed as IRGACURE 184): negative
